# Source: the CheMixHub viscosity set
# ± gives the uncertainty stated by the source.
# Test: xn = mol fraction of the nth substance listed
smiles,measurement,setting,value
CCCOC(=O)c1ccccc1 + CCCCCCCCCC,viscosity,"298.15 K, 101 kPa, x2 = 0.0819",2.098 ± 0.067 mPa·s
same,viscosity,"298.15 K, 101 kPa, x2 = 0.1156",2.012 ± 0.064 mPa·s
same,viscosity,"298.15 K, 101 kPa, x2 = 0.1582",1.889 ± 0.06 mPa·s
same,viscosity,"298.15 K, 101 kPa, x2 = 0.2027",1.779 ± 0.057 mPa·s
same,viscosity,"298.15 K, 101 kPa, x2 = 0.2437",1.682 ± 0.053 mPa·s
same,viscosity,"298.15 K, 101 kPa, x2 = 0.2875",1.589 ± 0.05 mPa·s
same,viscosity,"298.15 K, 101 kPa, x2 = 0.3302",1.501 ± 0.048 mPa·s
same,viscosity,"298.15 K, 101 kPa, x2 = 0.3837",1.407 ± 0.045 mPa·s
same,viscosity,"298.15 K, 101 kPa, x2 = 0.4284",1.338 ± 0.043 mPa·s
same,viscosity,"298.15 K, 101 kPa, x2 = 0.4707",1.277 ± 0.041 mPa·s
same,viscosity,"298.15 K, 101 kPa, x2 = 0.5198",1.213 ± 0.039 mPa·s
same,viscosity,"298.15 K, 101 kPa, x2 = 0.57",1.156 ± 0.037 mPa·s
same,viscosity,"298.15 K, 101 kPa, x2 = 0.6127",1.112 ± 0.035 mPa·s
same,viscosity,"298.15 K, 101 kPa, x2 = 0.7143",1.02 ± 0.032 mPa·s
same,viscosity,"298.15 K, 101 kPa, x2 = 0.773",0.977 ± 0.031 mPa·s
same,viscosity,"298.15 K, 101 kPa, x2 = 0.8262",0.94 ± 0.03 mPa·s
same,viscosity,"298.15 K, 101 kPa, x2 = 0.8749",0.914 ± 0.029 mPa·s
same,viscosity,"298.15 K, 101 kPa, x2 = 0.9333",0.887 ± 0.028 mPa·s
same,viscosity,"308.15 K, 101 kPa, x2 = 0.0562",1.757 ± 0.056 mPa·s
same,viscosity,"308.15 K, 101 kPa, x2 = 0.1002",1.658 ± 0.053 mPa·s
same,viscosity,"308.15 K, 101 kPa, x2 = 0.1418",1.569 ± 0.05 mPa·s
same,viscosity,"308.15 K, 101 kPa, x2 = 0.1788",1.495 ± 0.048 mPa·s
same,viscosity,"308.15 K, 101 kPa, x2 = 0.2302",1.4 ± 0.045 mPa·s
same,viscosity,"308.15 K, 101 kPa, x2 = 0.264",1.343 ± 0.043 mPa·s
same,viscosity,"308.15 K, 101 kPa, x2 = 0.3167",1.256 ± 0.04 mPa·s
same,viscosity,"308.15 K, 101 kPa, x2 = 0.356",1.198 ± 0.038 mPa·s
same,viscosity,"308.15 K, 101 kPa, x2 = 0.3966",1.142 ± 0.036 mPa·s
same,viscosity,"308.15 K, 101 kPa, x2 = 0.4436",1.087 ± 0.035 mPa·s
same,viscosity,"308.15 K, 101 kPa, x2 = 0.4971",1.029 ± 0.033 mPa·s
same,viscosity,"308.15 K, 101 kPa, x2 = 0.5403",0.99 ± 0.032 mPa·s
same,viscosity,"308.15 K, 101 kPa, x2 = 0.5866",0.952 ± 0.03 mPa·s
same,viscosity,"308.15 K, 101 kPa, x2 = 0.6432",0.908 ± 0.029 mPa·s
same,viscosity,"308.15 K, 101 kPa, x2 = 0.6916",0.875 ± 0.028 mPa·s
same,viscosity,"308.15 K, 101 kPa, x2 = 0.7401",0.847 ± 0.027 mPa·s
same,viscosity,"308.15 K, 101 kPa, x2 = 0.7945",0.816 ± 0.026 mPa·s
same,viscosity,"308.15 K, 101 kPa, x2 = 0.8513",0.789 ± 0.025 mPa·s
same,viscosity,"308.15 K, 101 kPa, x2 = 0.9295",0.759 ± 0.024 mPa·s
same,viscosity,"318.15 K, 101 kPa, x2 = 0.0529",1.466 ± 0.047 mPa·s
same,viscosity,"318.15 K, 101 kPa, x2 = 0.0776",1.417 ± 0.045 mPa·s
same,viscosity,"318.15 K, 101 kPa, x2 = 0.1165",1.349 ± 0.043 mPa·s
same,viscosity,"318.15 K, 101 kPa, x2 = 0.161",1.273 ± 0.041 mPa·s
same,viscosity,"318.15 K, 101 kPa, x2 = 0.2024",1.211 ± 0.039 mPa·s
same,viscosity,"318.15 K, 101 kPa, x2 = 0.2495",1.144 ± 0.036 mPa·s
same,viscosity,"318.15 K, 101 kPa, x2 = 0.2905",1.092 ± 0.035 mPa·s
same,viscosity,"318.15 K, 101 kPa, x2 = 0.3397",1.034 ± 0.033 mPa·s
same,viscosity,"318.15 K, 101 kPa, x2 = 0.3834",0.987 ± 0.031 mPa·s
same,viscosity,"318.15 K, 101 kPa, x2 = 0.432",0.94 ± 0.03 mPa·s
same,viscosity,"318.15 K, 101 kPa, x2 = 0.4779",0.899 ± 0.029 mPa·s
same,viscosity,"318.15 K, 101 kPa, x2 = 0.5308",0.857 ± 0.027 mPa·s
same,viscosity,"318.15 K, 101 kPa, x2 = 0.5771",0.824 ± 0.026 mPa·s
same,viscosity,"318.15 K, 101 kPa, x2 = 0.6312",0.79 ± 0.025 mPa·s
same,viscosity,"318.15 K, 101 kPa, x2 = 0.6794",0.763 ± 0.024 mPa·s
same,viscosity,"318.15 K, 101 kPa, x2 = 0.7616",0.722 ± 0.023 mPa·s
same,viscosity,"318.15 K, 101 kPa, x2 = 0.8328",0.693 ± 0.022 mPa·s
same,viscosity,"318.15 K, 101 kPa, x2 = 0.8708",0.679 ± 0.022 mPa·s
same,viscosity,"318.15 K, 101 kPa, x2 = 0.906",0.668 ± 0.021 mPa·s
CCCCOC(C)=O + CCCCCCCCCCCC,viscosity,"298.15 K, 101.3 kPa, x1 = 0.133",1.231 ± 0.011 mPa·s
same,viscosity,"298.15 K, 101.3 kPa, x1 = 0.2982",1.09 ± 0.0096 mPa·s
same,viscosity,"298.15 K, 101.3 kPa, x1 = 0.4364",0.9867 ± 0.0087 mPa·s
same,viscosity,"298.15 K, 101.3 kPa, x1 = 0.4791",0.9597 ± 0.0085 mPa·s
same,viscosity,"298.15 K, 101.3 kPa, x1 = 0.5426",0.9188 ± 0.0082 mPa·s
same,viscosity,"298.15 K, 101.3 kPa, x1 = 0.683",0.8358 ± 0.0075 mPa·s
same,viscosity,"298.15 K, 101.3 kPa, x1 = 0.7904",0.7782 ± 0.007 mPa·s
same,viscosity,"298.15 K, 101.3 kPa, x1 = 0.8705",0.7393 ± 0.0067 mPa·s
same,viscosity,"298.15 K, 101.3 kPa, x1 = 0.9238",0.7176 ± 0.0065 mPa·s
same,viscosity,"298.15 K, 101.3 kPa, x1 = 0.9757",0.6938 ± 0.0063 mPa·s
